# From patent US10597380B2, “Pyridazinone-based broad spectrum anti-influenza inhibitors” (Hoffmann-La Roche Inc., priority 2017, dated 2020)
# Test system: Influenza A/WSN/33-Luciferase virus
# Test: microbe, parasite or virus in culture
# Assay type: cell-based
# Conditions: A549, 72 h, luciferase signal three days later, read-out: IC50 antiviral activity (Luciferase reporter assay)
row,SMILES,IC50 [nM]
1,"CN1CCc2c(c(Nc3cccn(C)c3=O)nn(-c3ccc(OC(F)(F)F)cc3)c2=O)C1 [Example 133, 6-Methyl-4-[(1-methyl-2-oxo-3-pyridyl)amino]-2-[4-(trifluoromethoxy)phenyl]-7,8-dihydro-5H-pyrido[3,4-d]pyridazin-1-one]",538
2,"Cn1cccc(Nc2nn(-c3ccc(OC(F)(F)F)cc3)c(=O)c3c2CCNC3)c1=O [Example 134, 1-[(1-Methyl-2-oxo-3-pyridyl)amino]-3-[4-(trifluoromethoxy)phenyl]-5,6,7,8-tetrahydropyrido[3,4-d]pyridazin-4-one]",521
3,"O=c1c(Nc2nn(-c3ccc(OC(F)(F)F)cc3)c(=O)c3c2CCC3)cccn1C[C@@H]1CNCCO1 [Example 135, 1-[[1-[[(2S)-Morpholin-2-yl]methyl]-2-oxo-3-pyridyl]amino]-3-[4-(trifluoromethoxy)phenyl]-6,7-dihydro-5H-cyclopenta[d]pyridazin-4-one]",85
4,"COCCOc1ccc2c(=O)n(-c3ccc(OC(F)(F)F)cc3)nc(Nc3cccn(C)c3=O)c2c1 [Example 136, 6-(2-Methoxyethoxy)-4-[(1-methyl-2-oxo-3-pyridyl)amino]-2-[4-(trifluoromethoxy)phenyl]phthalazin-1-one]",61
5,"COCCOc1ccc2c(Nc3cccn(C)c3=O)nn(-c3ccc(OC(F)(F)F)cc3)c(=O)c2c1 [Example 137, 7-(2-Methoxyethoxy)-4-[(1-methyl-2-oxo-3-pyridyl)amino]-2-[4-(trifluoromethoxy)phenyl]phthalazin-1-one]",136
6,"COCCOc1cccc2c(=O)n(-c3ccc(OC(F)(F)F)cc3)nc(Nc3cccn(C)c3=O)c12 [Example 138, 5-(2-Methoxyethoxy)-4-[(1-methyl-2-oxo-3-pyridyl)amino]-2-[4-(trifluoromethoxy)phenyl]phthalazin-1-one]",110
7,"Cn1cccc(Nc2nn(-c3ccc(OC(F)(F)F)cc3)c(=O)c3cc(C(N)=O)ccc23)c1=O [Example 139, 1-[(1-Methyl-2-oxo-3-pyridyl)amino]-4-oxo-3-[4-(trifluoromethoxy)phenyl]phthalazine-6-carboxamide]",62
8,"CC(O)c1ccc2c(Nc3cccn(C)c3=O)nn(-c3ccc(OC(F)(F)F)cc3)c(=O)c2c1 (centres unmarked) [Example 140, 7-(1-Hydroxyethyl)-4-[(1-methyl-2-oxo-3-pyridyl)amino]-2-[4-(trifluoromethoxy)phenyl]phthalazin-1-one]",32
9,"Cn1cccc(Nc2nn(-c3ccc(OC(F)(F)F)cc3)c(=O)c3cc(CO)ccc23)c1=O [Example 141, 7-(hydroxymethyl)-4-[(1-methyl-2-oxo-3-pyridyl)amino]-2-[4-(trifluoromethoxy)phenyl]phthalazin-1-one]",12
10,"Cn1cccc(Nc2nn(-c3ccc(OC(F)(F)F)cc3)c(=O)c3cc(N)ccc23)c1=O [Example 142, 7-Amino-4-[(1-methyl-2-oxo-3-pyridyl)amino]-2-[4-(trifluoromethoxy)phenyl]phthalazin-1-one]",46
11,"Cn1cccc(Nc2nn(-c3ccc(OC(F)(F)F)cc3)c(=O)c3cc(CN)ccc23)c1=O [Example 143, 7-(Aminomethyl)-4-[(1-methyl-2-oxo-3-pyridyl)amino]-2-[4-(trifluoromethoxy)phenyl]phthalazin-1-one]",271
12,"CN(C)Cc1ccc2c(Nc3cccn(C)c3=O)nn(-c3ccc(OC(F)(F)F)cc3)c(=O)c2c1 [Example 144, 7-[(Dimethylamino)methyl]-4-[(1-methyl-2-oxo-3-pyridyl)amino]-2-[4-(trifluoromethoxy)phenyl]phthalazin-1-one]",625
13,"CC(O)CN1CCc2c(Nc3cccn(C)c3=O)nn(-c3ccc(OC(F)(F)F)cc3)c(=O)c2C1 (centres unmarked) [Example 145, 6-(2-Hydroxypropyl)-1-[(1-methyl-2-oxo-3-pyridyl)amino]-3-[4-(trifluoromethoxy)phenyl]-7,8-dihydro-5H-pyrido[3,4-d]pyridazin-4-one]",129
14,"Cn1cccc(Nc2nn(-c3ccc(OC(F)(F)F)cc3)c(=O)c3c2CCN(CC(C)(C)O)C3)c1=O [Example 146, 6-(2-Hydroxy-2-methyl-propyl)-1-[(1-methyl-2-oxo-3-pyridyl)amino]-3-[4-(trifluoromethoxy)phenyl]-7,8-dihydro-5H-pyrido[3,4-d]pyridazin-4-one]",167
15,"Cn1cccc(Nc2nn(-c3ccc(OC(F)(F)F)cc3)c(=O)c3c2CCN(CCO)C3)c1=O [Example 147, 6-(2-Hydroxyethyl)-1-[(1-methyl-2-oxo-3-pyridyl)amino]-3-[4-(trifluoromethoxy)phenyl]-7,8-dihydro-5H-pyrido[3,4-d]pyridazin-4-one]",76
16,"CC(=O)N1CCc2c(Nc3cccn(C)c3=O)nn(-c3ccc(OC(F)(F)F)cc3)c(=O)c2C1 [Example 148, 6-Acetyl-1-[(1-methyl-2-oxo-3-pyridyl)amino]-3-[4-(trifluoromethoxy)phenyl]-7,8-dihydro-5H-pyrido[3,4-d]pyridazin-4-one]",19

row,SMILES,IC50 [nM]
1,"CC(=O)N1CCc2c(c(Nc3cccn(C)c3=O)nn(-c3ccc(OC(F)(F)F)cc3)c2=O)C1 [Example 149, 6-Acetyl-4-[(1-methyl-2-oxo-3-pyridyl)amino]-2-[4-(trifluoromethoxy)phenyl]-7,8-dihydro-5H-pyrido[3,4-d]pyridazin-1-one]",71
2,"CC(=O)N1CCc2c(Nc3cncn(C)c3=O)nn(-c3ccc(OC(F)(F)F)cc3)c(=O)c2C1 [Example 150, 6-Acetyl-1-[(1-methyl-6-oxo-pyrimidin-5-yl)amino]-3-[4-(trifluoromethoxy)phenyl]-7,8-dihydro-5H-pyrido[3,4-d]pyridazin-4-one]",104
3,"CC(=O)N1CCc2c(c(Nc3cncn(C)c3=O)nn(-c3ccc(OC(F)(F)F)cc3)c2=O)C1 [Example 151, 6-Acetyl-4-[(1-methyl-6-oxo-pyrimidin-5-yl)amino]-2-[4-(trifluoromethoxy)phenyl]-7,8-dihydro-5H-pyrido[3,4-d]pyridazin-1-one]",372
4,"COC(=O)N1CCc2c(c(Nc3cccn(C)c3=O)nn(-c3ccc(OC(F)(F)F)cc3)c2=O)C1 [Example 152, Methyl 4-[(1-methyl-2-oxo-3-pyridyl)amino]-1-oxo-2-[4-(trifluoromethoxy)phenyl]-7,8-dihydro-5H-pyrido[3,4-d]pyridazine-6-carboxylate]",32
5,"COC(=O)N1CCc2c(Nc3cccn(C)c3=O)nn(-c3ccc(OC(F)(F)F)cc3)c(=O)c2C1 [Example 153, Methyl 1-[(1-methyl-2-oxo-3-pyridyl)amino]-4-oxo-3-[4-(trifluoromethoxy)phenyl]-7,8-dihydro-5H-pyrido[3,4-d]pyridazine-6-carboxylate]",61
6,"Cn1cccc(Nc2nn(-c3ccc(OC(F)(F)F)cc3)c(=O)c3c2CN(C=O)CC3)c1=O [Example 154, 4-[(1-Methyl-2-oxo-3-pyridyl)amino]-1-oxo-2-[4-(trifluoromethoxy)phenyl]-7,8-dihydro-5H-pyrido[3,4-d]pyridazine-6-carbaldehyde]",144
7,"Cn1cccc(Nc2nn(-c3ccc(OC(F)(F)F)cc3)c(=O)c3c2CCN(C=O)C3)c1=O [Example 155, 1-[(1-Methyl-2-oxo-3-pyridyl)amino]-4-oxo-3-[4-(trifluoromethoxy)phenyl]-7,8-dihydro-5H-pyrido[3,4-d]pyridazine-6-carbaldehyde]",86
8,"Cn1cccc(Nc2nn(-c3ccc(OC(F)(F)F)cc3)c(=O)c3c2CCN(S(C)(=O)=O)C3)c1=O [Example 156, 1-[(1-Methyl-2-oxo-3-pyridyl)amino]-6-methylsulfonyl-3-[4-(trifluoromethoxy)phenyl]-7,8-dihydro-5H-pyrido[3,4-d]pyridazin-4-one]",266
9,"Cn1cccc(Nc2nn(-c3ccc(OC(F)(F)F)cc3)c(=O)c3c2CN(S(C)(=O)=O)CC3)c1=O [Example 157, 4-[(1-Methyl-2-oxo-3-pyridyl)amino]-6-methylsulfonyl-2-[4-(trifluoromethoxy)phenyl]-7,8-dihydro-5H-pyrido[3,4-d]pyridazin-1-one]",167
10,"CCN1CCc2c(Nc3cccn(C)c3=O)nn(-c3ccc(OC(F)(F)F)cc3)c(=O)c2C1 [Example 158, 6-Ethyl-1-[(1-methyl-2-oxo-3-pyridyl)amino]-3-[4-(trifluoromethoxy)phenyl]-7,8-dihydro-5H-pyrido[3,4-d]pyridazin-4-one]",105
11,"CC(C)N1CCc2c(Nc3cccn(C)c3=O)nn(-c3ccc(OC(F)(F)F)cc3)c(=O)c2C1 [Example 159, 6-Isopropyl-1-[(1-methyl-2-oxo-3-pyridyl)amino]-3-[4-(trifluoromethoxy)phenyl]-7,8-dihydro-5H-pyrido[3,4-d]pyridazin-4-one]",186
12,"CNC(=O)N1CCc2c(c(Nc3cccn(C)c3=O)nn(-c3ccc(OC(F)(F)F)cc3)c2=O)C1 [Example 160, N-Methyl-4-[(1-methyl-2-oxo-3-pyridyl)amino]-1-oxo-2-[4-(trifluoromethoxy)phenyl]-7,8-dihydro-5H-pyrido[3,4-d]pyridazine-6-carboxamide]",86
13,"CNC(=O)N1CCc2c(Nc3cccn(C)c3=O)nn(-c3ccc(OC(F)(F)F)cc3)c(=O)c2C1 [Example 161, N-Methyl-1-[(1-methyl-2-oxo-3-pyridyl)amino]-4-oxo-3-[4-(trifluoromethoxy)phenyl]-7,8-dihydro-5H-pyrido[3,4-d]pyridazine-6-carboxamide]",112
14,"Cn1cccc(Nc2nn(-c3ccc(C(C)(C)O)cc3)c(=O)c3ccccc23)c1=O [Example 162, 2-[4-(1-Hydroxy-1-methyl-ethyl)phenyl]-4-[(1-methyl-2-oxo-3-pyridyl)amino]phthalazin-1-one]",1400
15,"O=c1c(Nc2nn(-c3ccc(OC(F)(F)F)cc3)c(=O)c3ccccc23)cccn1CCO [Example 163, 4-[[1-(2-Hydroxyethyl)-2-oxo-3-pyridyl]amino]-2-[4-(trifluoromethoxy)phenyl]phthalazin-1-one]",62
16,"Cn1cccc(Nc2nn(-c3ccc(OC(F)(F)F)cc3)c(=O)c3c2CCC(O)C3)c1=O (centres unmarked) [Example 164, 7-Hydroxy-4-[(1-methyl-2-oxo-3-pyridyl)amino]-2-[4-(trifluoromethoxy)phenyl]-5,6,7,8-tetrahydrophthalazin-1-one]",46
